Where a name gives a salt, the structure may show the parent alone.
How the values were obtained:
[1] = target: T1, intracellular phosphorylation of EGFR in NCI-H1975 cell line that harbors the EGFR L858R T790M mutations (Homo sapiens, UniProt P00533, L858R/T790M); test: NCI-H1975 pEGFR AlphaLISA assay; assay type: cell-based; conditions: NCI-H1975 cells (EGFR L858R T790M), p-EGFR (Tyr1068), 4-5 hours incubation; read-out: Ext pEGFR H1975 GMean IC50 (nM) Protocol: @Pharmaron AlphaLISA (Num)
T1 construct: NCI-H1975 cell line that harbors the EGFR L858R T790M mutations (ATCC, CRL-5908); host or cells: NCI-H1975
Procedure: On the next day, the test compounds and DMSO control were added into H1975 cell plate followed by incubation at 37C/5% CO2 for 4-5 hours. […] Then 5 μL of a donor bead mix was added to each well followed by overnight incubation at room temperature in dark. On the next day, the plate was read at a compatible plate reader to obtain pEGFR signal. Percent of pEGFR inhibition was plotted against log concentration of compounds to generate IC50 values.

EGFR (L858R T790M C797S) = target: T2, EGFR (L858R T790M C797S) (Homo sapiens, UniProt P00533, C797S/L858R/T790M); test: Biochemical EGFR inhibition assay (Caliper mobility shift), EGFR LRTMCS; conditions: LRTMCS (PH) IC50 (nM) @ 1 mM ATP (Num), EGFR LRTMCS mutant
T2 construct: purchased SignalChem E10-122VG
Procedure, shortened: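 Each enzyme was allowed to phosphorylate 10–20% of its peptide at 25° C. before EDTA (35 mM) quench. Separated substrate and product peaks were measured by mobility shift, giving apparent IC50 values.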

T1 sequence (P00533 25-1210 T790M/L858R): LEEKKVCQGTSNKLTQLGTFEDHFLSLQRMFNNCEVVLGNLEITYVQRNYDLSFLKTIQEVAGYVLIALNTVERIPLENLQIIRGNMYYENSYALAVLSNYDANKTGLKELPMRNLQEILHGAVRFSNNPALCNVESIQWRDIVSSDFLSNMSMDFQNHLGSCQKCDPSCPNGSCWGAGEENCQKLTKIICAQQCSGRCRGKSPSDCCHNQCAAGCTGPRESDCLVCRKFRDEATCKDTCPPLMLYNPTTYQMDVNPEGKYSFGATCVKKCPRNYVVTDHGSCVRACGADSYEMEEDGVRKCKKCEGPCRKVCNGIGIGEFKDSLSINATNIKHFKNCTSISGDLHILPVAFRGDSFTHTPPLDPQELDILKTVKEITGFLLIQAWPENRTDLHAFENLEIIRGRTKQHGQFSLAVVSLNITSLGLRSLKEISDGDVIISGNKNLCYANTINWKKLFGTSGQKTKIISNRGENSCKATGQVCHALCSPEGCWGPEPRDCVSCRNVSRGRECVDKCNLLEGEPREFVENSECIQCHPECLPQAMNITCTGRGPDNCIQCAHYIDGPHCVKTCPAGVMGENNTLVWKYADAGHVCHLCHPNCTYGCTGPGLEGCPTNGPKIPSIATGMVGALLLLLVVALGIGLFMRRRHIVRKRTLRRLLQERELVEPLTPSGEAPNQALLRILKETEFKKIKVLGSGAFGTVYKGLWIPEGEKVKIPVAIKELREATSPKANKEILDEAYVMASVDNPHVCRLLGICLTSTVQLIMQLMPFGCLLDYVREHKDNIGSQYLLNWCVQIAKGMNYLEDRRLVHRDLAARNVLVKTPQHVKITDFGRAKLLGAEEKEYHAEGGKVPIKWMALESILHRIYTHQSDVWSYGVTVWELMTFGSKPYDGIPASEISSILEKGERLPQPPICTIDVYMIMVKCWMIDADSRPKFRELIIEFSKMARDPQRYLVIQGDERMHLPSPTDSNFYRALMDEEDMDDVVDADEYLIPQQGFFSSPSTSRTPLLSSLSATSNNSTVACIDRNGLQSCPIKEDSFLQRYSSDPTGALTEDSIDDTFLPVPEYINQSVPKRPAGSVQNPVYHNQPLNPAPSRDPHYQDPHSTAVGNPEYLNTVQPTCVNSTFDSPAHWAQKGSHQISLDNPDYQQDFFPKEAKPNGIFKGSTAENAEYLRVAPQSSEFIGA
T2 sequence (P00533 25-1210 T790M/C797S/L858R): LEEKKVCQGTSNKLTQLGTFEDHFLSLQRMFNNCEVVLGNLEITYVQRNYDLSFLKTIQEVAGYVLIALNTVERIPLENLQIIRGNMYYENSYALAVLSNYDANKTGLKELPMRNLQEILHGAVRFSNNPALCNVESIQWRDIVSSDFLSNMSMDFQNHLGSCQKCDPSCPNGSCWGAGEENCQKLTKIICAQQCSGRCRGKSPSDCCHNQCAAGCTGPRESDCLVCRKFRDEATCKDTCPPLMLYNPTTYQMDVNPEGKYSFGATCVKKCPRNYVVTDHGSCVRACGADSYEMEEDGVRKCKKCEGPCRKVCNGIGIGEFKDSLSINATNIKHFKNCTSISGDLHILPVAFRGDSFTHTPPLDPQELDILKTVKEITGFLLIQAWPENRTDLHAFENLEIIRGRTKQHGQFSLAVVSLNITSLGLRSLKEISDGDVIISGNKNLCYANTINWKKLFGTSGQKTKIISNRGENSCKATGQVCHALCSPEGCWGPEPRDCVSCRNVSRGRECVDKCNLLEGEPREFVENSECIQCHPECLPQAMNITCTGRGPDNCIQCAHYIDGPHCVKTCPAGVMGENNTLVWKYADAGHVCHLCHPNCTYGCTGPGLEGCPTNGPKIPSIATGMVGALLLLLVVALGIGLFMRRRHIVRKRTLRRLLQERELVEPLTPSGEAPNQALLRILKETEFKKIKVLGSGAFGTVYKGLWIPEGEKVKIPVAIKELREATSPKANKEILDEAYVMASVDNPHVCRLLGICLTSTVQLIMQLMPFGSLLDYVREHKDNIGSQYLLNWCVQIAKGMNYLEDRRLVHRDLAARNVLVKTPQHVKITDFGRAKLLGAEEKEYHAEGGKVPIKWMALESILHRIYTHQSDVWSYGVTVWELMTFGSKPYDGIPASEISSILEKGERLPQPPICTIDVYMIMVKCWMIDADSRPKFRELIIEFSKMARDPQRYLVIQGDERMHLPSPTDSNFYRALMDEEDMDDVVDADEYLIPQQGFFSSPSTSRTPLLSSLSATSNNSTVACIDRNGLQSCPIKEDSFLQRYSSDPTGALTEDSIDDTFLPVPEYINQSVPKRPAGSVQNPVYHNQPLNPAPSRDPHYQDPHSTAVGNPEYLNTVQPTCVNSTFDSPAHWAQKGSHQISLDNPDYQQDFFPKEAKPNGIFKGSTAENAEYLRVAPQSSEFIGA

## CC(C)c1cnc(N2C[C@@H](F)[C@H]2C)c2cnc(Nc3ccnc(N4CC[C@@H](O)[C@@](C)(F)C4)n3)cc12 (single isomer, unassigned) [Example 33, (3S,4R)-3-fluoro-1-(4-((8-((2R,3R)-3-fluoro-2-methylazetidin-1-yl)-5-isopropyl-2,7-naphthyridin-3-yl)amino)pyrimidin-2-yl)-3-methylpiperidin-4-ol or (3S,4R)-3-fluoro-1-(4-((8-((2S,3S)-3-fluoro-2-methylazetidin-1-yl)-5-isopropyl-2,7-naphthyridin-3-yl)amino)pyrimidin-2-yl)-3-methylpiperidin-4-ol]
[1]
  IC50: < 10 nM
EGFR (L858R T790M C797S)
  IC50: < 15 nM

## CC(C)c1cnc(N2CC(O)C2)c2cnc(Nc3ccnc(N4CC[C@@]5(CCO5)C(F)(F)C4)n3)cc12 (single isomer, unassigned) [Example 146, (R)-1-(6-((2-(5,5-difluoro-1-oxa-7-azaspiro[3.5]nonan-7-yl)pyrimidin-4-yl)amino)-4-isopropyl-2,7-naphthyridin-1-yl)azetidin-3-ol or (S)-1-(6-((2-(5,5-difluoro-1-oxa-7-azaspiro[3.5]nonan-7-yl)pyrimidin-4-yl)amino)-4-isopropyl-2,7-naphthyridin-1-yl)azetidin-3-ol]
[1]
  IC50: 30 to 50 nM
EGFR (L858R T790M C797S)
  IC50: < 15 nM

## CC(C)c1cnc(N2CC[C@]3(C2)CC3(F)F)c2cnc(Nc3ccnc(N4CC[C@@H](O)[C@@](C)(F)C4)n3)cc12 (single isomer, unassigned) [Example 213, (3S,4R)-1-(4-((8-((R)-1,1-difluoro-5-azaspiro[2.4]heptan-5-yl)-5-isopropyl-2,7-naphthyridin-3-yl)amino)pyrimidin-2-yl)-3-fluoro-3-methylpiperidin-4-ol or (3S,4R)-1-(4-((8-((S)-1,1-difluoro-5-azaspiro[2.4]heptan-5-yl)-5-isopropyl-2,7-naphthyridin-3-yl)amino)pyrimidin-2-yl)-3-fluoro-3-methylpiperidin-4-ol]
[1]
  IC50: 10 to 20 nM
EGFR (L858R T790M C797S)
  IC50: < 15 nM

## CC(C)c1cnc(N2CC(CP(C)(C)=O)C2)c2cnc(Nc3ccnc(N4CC[C@@H](O)[C@@](C)(F)C4)n3)cc12 [Example 79, ((1-(6-((2-((3S,4R)-3-fluoro-4-hydroxy-3-methylpiperidin-1-yl)pyrimidin-4-yl)amino)-4-isopropyl-2,7-naphthyridin-1-yl)azetidin-3-yl)methyl)dimethylphosphine oxide]
[1]
  IC50: > 50 nM
EGFR (L858R T790M C797S)
  IC50: 30 to 100 nM

## CC(C)c1cnc(N2CC(F)(CO)C2)c2cnc(Nc3ccnc(N4CC[C@@H](O)[C@@](C)(F)C4)n3)cc12 [Example 67, (3S,4R)-3-fluoro-1-(4-((8-(3-fluoro-3-(hydroxymethyl)azetidin-1-yl)-5-isopropyl-2,7-naphthyridin-3-yl)amino)pyrimidin-2-yl)-3-methylpiperidin-4-ol]
[1]
  IC50: > 50 nM
EGFR (L858R T790M C797S)
  IC50: 15 to 20 nM

## CC(C)c1cnc(-c2nc[nH]n2)c2cnc(Nc3ccnc(N4CC[C@@H](O)[C@@](C)(F)C4)n3)cc12 [Example 25, (3S,4R)-3-fluoro-1-(4-((5-isopropyl-8-(1H-1,2,4-triazol-3-yl)-2,7-naphthyridin-3-yl)amino)pyrimidin-2-yl)-3-methylpiperidin-4-ol]
[1]
  IC50: 30 to 50 nM
EGFR (L858R T790M C797S)
  IC50: 15 to 20 nM

## CC(C)c1ccc(N2CC[C@H]2CO)c2cnc(Nc3ccnc(N4CC[C@@H](O)[C@@](C)(F)C4)n3)cc12 [Example 105, (3S,4R)-3-fluoro-1-(4-((8-((S)-2-(hydroxymethyl)azetidin-1-yl)-5-isopropylisoquinolin-3-yl)amino)pyrimidin-2-yl)-3-methylpiperidin-4-ol]
[1]
  IC50: 20 to 30 nM
EGFR (L858R T790M C797S)
  IC50: < 15 nM

## CC(C)c1cnc(N2CCC[C@H]2CN(C)C)c2cnc(Nc3ccnc(N4CC[C@@H](O)[C@@](C)(F)C4)n3)cc12 [Example 115, (3S,4R)-1-(4-((8-((S)-2-((dimethylamino)methyl)pyrrolidin-1-yl)-5-isopropyl-2,7-naphthyridin-3-yl)amino)pyrimidin-2-yl)-3-fluoro-3-methylpiperidin-4-ol]
[1]
  IC50: 30 to 50 nM
EGFR (L858R T790M C797S)
  IC50: 30 to 100 nM

## CO[C@H]1CCN(c2nccc(Nc3cc4c(C(C)C)cnc(N5CC(O)C5)c4cn3)n2)C[C@H]1F [Example 44, 1-(6-((2-((3R,4S)-3-fluoro-4-methoxypiperidin-1-yl)pyrimidin-4-yl)amino)-4-isopropyl-2,7-naphthyridin-1-yl)azetidin-3-ol]
[1]
  IC50: 20 to 30 nM
EGFR (L858R T790M C797S)
  IC50: < 15 nM

## CC(C)c1cnc(N2CC3(CCS3(=O)=O)C2)c2cnc(Nc3ccnc(N4C[C@@H](F)[C@@H](O)C(C)(C)C4)n3)cc12 (single isomer, unassigned) [Example 132, 6-(6-((2-((4S,5R)-5-fluoro-4-hydroxy-3,3-dimethylpiperidin-1-yl)pyrimidin-4-yl)amino)-4-isopropyl-2,7-naphthyridin-1-yl)-1-thia-6-azaspiro[3.3]heptane 1,1-dioxide or 6-(6-((2-((4R,5S)-5-fluoro-4-hydroxy-3,3-dimethylpiperidin-1-yl)pyrimidin-4-yl)amino)-4-isopropyl-2,7-naphthyridin-1-yl)-1-thia-6-azaspiro[3.3]heptane 1,1-dioxide]
[1]
  IC50: 10 to 20 nM
EGFR (L858R T790M C797S)
  IC50: < 15 nM

## CO[C@H]1CCN(c2nccc(Nc3cc4c(C(C)C)cnc(N5CC[C@H]5CN)c4cn3)n2)C[C@H]1F [Example 165, 8-((S)-2-(aminomethyl)azetidin-1-yl)-N-(2-((3R,4S)-3-fluoro-4-methoxypiperidin-1-yl)pyrimidin-4-yl)-5-isopropyl-2,7-naphthyridin-3-amine]
[1]
  IC50: 20 to 30 nM
EGFR (L858R T790M C797S)
  IC50: < 15 nM

## CC(C)c1ccc(N2C[C@H](n3ccnn3)[C@H]2C)c2cnc(Nc3ccnc(N4CCC(C)(O)CC4)n3)cc12 [Example 129, 1-(4-((5-isopropyl-8-((2R,3S)-2-methyl-3-(1H-1,2,3-triazol-1-yl)azetidin-1-yl)isoquinolin-3-yl)amino)pyrimidin-2-yl)-4-methylpiperidin-4-ol]
[1]
  IC50: 20 to 30 nM
EGFR (L858R T790M C797S)
  IC50: 30 to 100 nM

## CC(C)c1cnc(N2CCC23CN(C)C3)c2cnc(Nc3ccnc(N4CC[C@@H](O)[C@@](C)(F)C4)n3)cc12 [Example 192, (3S,4R)-3-fluoro-1-(4-((5-isopropyl-8-(6-methyl-1,6-diazaspiro[3.3]heptan-1-yl)-2,7-naphthyridin-3-yl)amino)pyrimidin-2-yl)-3-methylpiperidin-4-ol trifluoroacetate]
[1]
  IC50: 30 to 50 nM
EGFR (L858R T790M C797S)
  IC50: < 15 nM

## CC(C)c1cnc(N2CC[C@@H]2C)c2cnc(Nc3ccnc(N4CC[C@@H](O)[C@@H](F)C4)n3)cc12 (single isomer, unassigned) [Example 159, (3S,4R)-3-fluoro-1-(4-((5-isopropyl-8-((S)-2-methylazetidin-1-yl)-2,7-naphthyridin-3-yl)amino)pyrimidin-2-yl)piperidin-4-ol or (3S,4R)-3-fluoro-1-(4-((5-isopropyl-8-((R)-2-methylazetidin-1-yl)-2,7-naphthyridin-3-yl)amino)pyrimidin-2-yl)piperidin-4-ol]
[1]
  IC50: 10 to 20 nM
EGFR (L858R T790M C797S)
  IC50: < 15 nM

## CC(C)c1cnc(N2CC(N3CCCC3=O)C2)c2cnc(Nc3ccnc(N4CC[C@@H](O)[C@@](C)(F)C4)n3)cc12 [Example 91, 1-(1-(6-((2-((3S,4R)-3-fluoro-4-hydroxy-3-methylpiperidin-1-yl)pyrimidin-4-yl)amino)-4-isopropyl-2,7-naphthyridin-1-yl)azetidin-3-yl)pyrrolidin-2-one]
[1]
  IC50: > 50 nM
EGFR (L858R T790M C797S)
  IC50: 15 to 20 nM

## CC(C)c1ccc(N2C[C@H](O)[C@H]2C)c2cnc(Nc3ccnc(N4CC[C@@H](O)[C@@](C)(F)C4)n3)cc12 [Example 103, (3S,4R)-3-fluoro-1-(4-((8-((2R,3S)-3-hydroxy-2-methylazetidin-1-yl)-5-isopropylisoquinolin-3-yl)amino)pyrimidin-2-yl)-3-methylpiperidin-4-ol]
[1]
  IC50: 10 to 20 nM
EGFR (L858R T790M C797S)
  IC50: < 15 nM

## CC(C)c1cnc(N2CC[C@@H](CS(C)(=O)=O)C2)c2cnc(Nc3ccnc(N4CC[C@@H](O)[C@@](C)(F)C4)n3)cc12 (single isomer, unassigned) [Example 207, (3S,4R)-3-fluoro-1-(4-((5-isopropyl-8-((R)-3-((methylsulfonyl)methyl)pyrrolidin-1-yl)-2,7-naphthyridin-3-yl)amino)pyrimidin-2-yl)-3-methylpiperidin-4-ol or (3S,4R)-3-fluoro-1-(4-((5-isopropyl-8-((S)-3-((methylsulfonyl)methyl)pyrrolidin-1-yl)-2,7-naphthyridin-3-yl)amino)pyrimidin-2-yl)-3-methylpiperidin-4-ol]
[1]
  IC50: 20 to 30 nM
EGFR (L858R T790M C797S)
  IC50: < 15 nM

## CO[C@H]1CCN(c2nccc(Nc3cc4c(C(C)C)cnc(N5CCC56CN(C)C6)c4cn3)n2)C[C@H]1F [Example 42, N-(2-((3R,4S)-3-fluoro-4-methoxypiperidin-1-yl)pyrimidin-4-yl)-5-isopropyl-8-(6-methyl-1,6-diazaspiro[3.3]heptan-1-yl)-2,7-naphthyridin-3-amine]
[1]
  IC50: > 50 nM
EGFR (L858R T790M C797S)
  IC50: 20 to 30 nM

From US20240382483A1, “HETEROCYCLIC EGFR INHIBITORS FOR USE IN THE TREATMENT OF CANCER” (Blueprint Medicines Corporation, priority 2021, published 2024)
